Source: patent US20230277612A1, “SAPONIN DERIVATIVES FOR USE IN MEDICINE” (priority 2020, published 2023)
Read-outs that look alike come from different tables or passages of the source.

Experiments:
[1] = system: EGFR expressing cells (HeLa and A431); settings: summary in description
[2] = system: EGFR expressing cells (HeLa); format: cell-based
[3] = system: EGFR expressing cells (A431); format: cell-based
A431 cells = assay: cells; format: cell-based
Protocol: (§1) (FIGS. 66a and 66B). Next toxicity was determined, for this the modified saponins were titrated on HeLa and A431 cells. […] Next toxicity was determined, for this the modified saponins were titrated on HeLa and A431 cells.

HeLa cells = assay: cells; format: cell-based; settings: Table A5, saponin alone, read-out: IC50 nM (Toxicity)
Protocol: as §1

human red blood cells = assay: cells; format: cell-based
Protocol: Red blood cells (RBCs) were isolated from a buffy coat using a Ficoll gradient. The obtained RBC pellet (˜4-5 ml) was washed 2× with 50 ml DPBS (without Ca^2+/Mg^2+, PAN-Biotech GmbH). Cells were pelleted by centrifugation for 10 min, 800×g at RT. RBC were counted and resuspended at 500.000.000 c/ml in DPBS (without Ca^2+/Mg^2+), based on total cell count.
(§2) Saponin dilutions were prepared in DPBS (with Ca^2+/Mg^2+, PAN-Biotech GmbH), at 1.11× final strength. For positive lysis control a 0.02% Triton-X100 solution was prepared in DPBS^+/+. Of all compound solutions 135 μl was dispensed/well in a 96 well V-bottom plate. To this 15 μl RBC suspension was added and mixed shortly (10 sec-600 rpm). The plate was incubated 30 min at RT, with gentle agitation. Afterwards the plate was spun for 10 min at 800×g to pellet the RBC and 100-120 μl supernatant was transferred to a standard 96 wp (96 well-plate).
as §2, with “DPBS+/+.” for “DPBS^+/+.”

[4] = Critical micellar concentration (CMC) by ANS fluorescence; format: physicochemical; settings: Table A7; determined in PBS
Protocol: The critical micellar concentration (CMC) of saponins derived from Saponaria officinalis (SO) (Table A7) and derived from Quillaja saponaria (QS) (Table A8, and Table A9) was determined by the method of DeVendittis et al. (A fluorimetric method for the estimation of the critical micelle concentration of surfactants, Analytical Biochemistry, Volume 115, Issue 2, August 1981, Pages 278-286) as follows:
(§3) The emission spectrum of 8-Anilinonaphthalene-1-sulfonic acid (ANS) in either purified water (MQ) or PBS (Dulbecco's PBS+/+) was determined at dry weight concentrations of saponins ranging from 1 to 1400 pM to cover the range below and above the CMC. Above the CMC, the fluorescence yield of ANS increases and the wavelength of maximum emission decreases due to portioning of the fluorescent dye into micelles. Fluorescence yields were recorded on a Fluoroskan Ascent FL (Thermo Scientific) at an excitation wavelength of 355 nm, and an emission wavelength of 460 nm. 6 μg at a concentration of 75.86 pM of ANS were used per sample and measurement.
The critical micellar concentration (CMC) of saponins was determined by the method of DeVendittis et al. (A fluorimetric method for the estimation of the critical micelle concentration of surfactants, Analytical Biochemistry, Volume 115, Issue 2, August 1981, Pages 278-286) as follows:
as §3, with “μM” for “pM”

[5] = HeLa, + 5 pM EGFdianthin, read-out: IC50 endosomal escape enhancing activity
[6] = A431, + 5 pM EGFdianthin, read-out: IC50 endosomal escape enhancing activity
[7] = Table A6, saponin alone, read-out: IC50 nM (Toxicity)
[8] = Table A5, read-out: IC50 nM (hemolysis)
[9] = Table A6, read-out: IC50 nM (hemolysis)
[10] = read-out: IC50 hemolytic activity
[11] = Table A5, HeLa cells, saponin titrated + 5 pM EGFdianthin, read-out: IC50 nM (Activity)
[12] = Table A6, A431 cells, saponin titrated + 5 pM EGFdianthin, read-out: IC50 nM (Activity)

Compound	Endosomal escape enhancing activity (enhancement of cytotoxicity of effector conjugate) [1]	IC50 [2, 5]	IC50 [3, 6]	IC50 (A431 cells; [7])	IC50 (HeLa cells)	IC50 (human red blood cells; [8])	IC50 (human red blood cells; [9])	IC50 (human red blood cells; [10])	CMC [4]	IC50 [2, 11]	IC50 [3, 12]	IC50 (A431 cells; saponin alone, read-out: IC50 toxicity)
CC(=O)OC1C(C)OC(OC2C(C)OC(OC(=O)[C@]34CCC(C)(C)CC3C3=CCC5[C@@]6(C)CC[C@H](OC7OC(C(=O)NC(C)(CO)CO)C(O)C(OC8OCC(O)C(O)C8O)C7OC7OC(CO)C(O)C(O)C7O)[C@@](C)(CO)C6CC[C@@]5(C)[C@]3(C)C[C@H]4O)C(OC3OC(C)C(OC4OCC(O)C(OC5OC(CO)C(O)C(O)C5O)C4O)C(O)C3O)C2O)C(O)C1OC1OCC(O)C(O)C1O (stereo partly drawn) [Molecule 9]	have the capacity to enhance the cytotoxic effect	–	–	–	–	–	–	–	–	–	–	–
CC1OC(OC2C(C)OC(OC(=O)[C@]34CCC(C)(C)CC3C3=CCC5[C@@]6(C)CC[C@H](OC7OC(C(=O)NC(C)(CO)CO)C(O)C(OC8OCC(O)C(O)C8O)C7OC7OC(CO)C(O)C(O)C7O)[C@@](C)(C=O)C6CC[C@@]5(C)[C@]3(C)C[C@H]4O)C(OC3OC(C)C(OC4OCC(O)C(OC5OC(CO)C(O)C(O)C5O)C4O)C(O)C3O)C2O)C(O)C(OC2OCC(O)C(O)C2O)C1O (stereo partly drawn) [Molecule 11]	display activity	–	–	–	–	–	–	–	–	–	–	–
CC1OC(OC2C(C)OC(OC(=O)[C@]34CCC(C)(C)CC3C3=CCC5[C@@]6(C)CC[C@H](OC7OC(C(=O)NCCN8C(=O)C=CC8=O)C(O)C(OC8OCC(O)C(O)C8O)C7OC7OC(CO)C(O)C(O)C7O)[C@@](C)(C=O)C6CC[C@@]5(C)[C@]3(C)C[C@H]4O)C(OC3OC(C)C(OC4OCC(O)C(OC5OC(CO)C(O)C(O)C5O)C4O)C(O)C3O)C2O)C(O)C(OC2OCC(O)C(O)C2O)C1O (stereo partly drawn) [SO1861-(Glu-AEM)-(Ac—OH)]	–	8000 nM	4000 nM	> 100000 nM	> 100000 nM	100000 nM	100000 nM	100000 nM	90 ± 10 µM	–	–	–
CC1OC(OC2C(C)OC(OC(=O)[C@]34CCC(C)(C)CC3C3=CCC5[C@@]6(C)CC[C@H](OC7OC(C(=O)NCCN8C(=O)C=CC8=O)C(O)C(OC8OCC(O)C(O)C8O)C7OC7OC(CO)C(O)C(O)C7O)[C@@](C)(C=O)C6CC[C@@]5(C)[C@]3(C)C[C@H]4O)C(OC3OC(C)C(OC4OCC(O)C(OC5OC(CO)C(O)C(O)C5O)C4O)C(O)C3O)C2O)C(O)C(OC2OCC(O)C(O)C2O)C1O (stereo partly drawn) [Molecule 19]	display activity	–	–	–	–	–	–	–	–	–	–	–
CC(=O)OC1C(C)OC(OC2C(C)OC(OC(=O)[C@]34CCC(C)(C)CC3C3=CCC5[C@@]6(C)CC[C@H](OC7OC(C(=O)NC(C)(CO)CO)C(O)C(OC8OCC(O)C(O)C8O)C7OC7OC(CO)C(O)C(O)C7O)[C@@](C)(CO)C6CC[C@@]5(C)[C@]3(C)C[C@H]4O)C(OC3OC(C)C(OC4OCC(O)C(OC5OC(CO)C(O)C(O)C5O)C4O)C(O)C3O)C2O)C(O)C1OC1OCC(O)C(O)C1O (stereo partly drawn) [SO1861-(Ald-OH)-(Glu-AMPD)]	–	4000 nM	4000 nM	> 100000 nM	> 100000 nM	–	–	–	50 ± 5 µM	–	–	–
CC1OC(OC2C(C)OC(OC(=O)[C@]34CCC(C)(C)CC3C3=CCC5[C@@]6(C)CC[C@H](OC7OC(C(=O)NCCN8C(=O)C=CC8=O)C(O)C(OC8OCC(O)C(O)C8O)C7OC7OC(CO)C(O)C(O)C7O)[C@@](C)(CO)C6CC[C@@]5(C)[C@]3(C)C[C@H]4O)C(OC3OC(C)C(OC4OCC(O)C(OC5OC(CO)C(O)C(O)C5O)C4O)C(O)C3O)C2O)C(O)C(OC2OCC(O)C(O)C2O)C1O (stereo partly drawn) [SO1861-(Glu-AEM)-(Ald-OH)-(Ac—OH)]	–	–	–	> 100000 nM	> 100000 nM	> 1e+06 nM	> 1e+06 nM	–	>150 µM	> 20000 nM	> 20000 nM	–
CC(=O)OC1C(C)OC(OC2C(C)OC(OC(=O)[C@]34CCC(C)(C)CC3C3=CCC5[C@@]6(C)CC[C@H](OC7OC(C(=O)O)C(O)C(OC8OCC(O)C(O)C8O)C7OC7OC(CO)C(O)C(O)C7O)[C@@](C)(CO)C6CC[C@@]5(C)[C@]3(C)C[C@H]4O)C(OC3OC(C)C(OC4OCC(O)C(OC5OC(CO)C(O)C(O)C5O)C4O)C(O)C3O)C2O)C(O)C1OC1OCC(O)C(O)C1O (stereo partly drawn) [SO1861-Ald-OH]	–	600 nM	600 nM	–	> 100000 nM	30000 nM	30000 nM	30000 nM	135 ± 14 µM	–	–	7000 nM
CC1OC(OC2C(C)OC(OC(=O)[C@]34CCC(C)(C)CC3C3=CCC5[C@@]6(C)CC[C@H](OC7OC(C(=O)NC(C)(CO)CO)C(O)C(OC8OCC(O)C(O)C8O)C7OC7OC(CO)C(O)C(O)C7O)[C@@](C)(C=O)C6CC[C@@]5(C)[C@]3(C)C[C@H]4O)C(OC3OC(C)C(OC4OCC(O)C(OC5OC(CO)C(O)C(O)C5O)C4O)C(O)C3O)C2O)C(O)C(OC2OCC(O)C(O)C2O)C1O (stereo partly drawn) [SO1861-(Ac—OH)-(Glu-AMPD)]	–	3000 nM	3000 nM	> 100000 nM	> 100000 nM	140000 nM	140000 nM	140000 nM	90 ± 10 µM	–	–	–
CC(=O)OC1C(C)OC(OC2C(C)OC(OC(=O)[C@]34CCC(C)(C)CC3C3=CCC5[C@@]6(C)CC[C@H](OC7OC(C(=O)NCCN8C(=O)C=CC8=O)C(O)C(OC8OCC(O)C(O)C8O)C7OC7OC(CO)C(O)C(O)C7O)[C@@](C)(CO)C6CC[C@@]5(C)[C@]3(C)C[C@H]4O)C(OC3OC(C)C(OC4OCC(O)C(OC5OC(CO)C(O)C(O)C5O)C4O)C(O)C3O)C2O)C(O)C1OC1OCC(O)C(O)C1O (stereo partly drawn) [SO1861-(Glu-AEM)-(Ald-OH)]	–	40000 nM	20000 nM	> 100000 nM	> 100000 nM	> 1e+06 nM	> 1e+06 nM	–	90 ± 10 µM	–	–	–
CC1OC(OC2C(C)OC(OC(=O)C34CCC(C)(C)CC3C3=CCC5C6(C)CCC(OC7OC(C(=O)O)C(O)C(OC8OCC(O)C(O)C8O)C7OC7OC(CO)C(O)C(O)C7O)C(C)(C=NNC(=O)CCCCCN7C(=O)C=CC7=O)C6CCC5(C)C3(C)CC4O)C(OC3OC(C)C(OC4OCC(O)C(OC5OC(CO)C(O)C(O)C5O)C4O)C(O)C3O)C2O)C(O)C(OC2OCC(O)C(O)C2O)C1O (stereo not drawn) [SO1861-(Ald-EMCH)-(Ac—OH)]	–	8000 nM	10000 nM	> 100000 nM	> 100000 nM	> 1e+06 nM	> 1e+06 nM	–	>300 µM	–	–	–
CC1OC(OC2C(C)OC(OC(=O)[C@]34CCC(C)(C)CC3C3=CCC5[C@@]6(C)CC[C@H](OC7OC(C(=O)NC(C)(CO)CO)C(O)C(OC8OCC(O)C(O)C8O)C7OC7OC(CO)C(O)C(O)C7O)[C@@](C)(CO)C6CC[C@@]5(C)[C@]3(C)C[C@H]4O)C(OC3OC(C)C(OC4OCC(O)C(OC5OC(CO)C(O)C(O)C5O)C4O)C(O)C3O)C2O)C(O)C(OC2OCC(O)C(O)C2O)C1O (stereo partly drawn) [SO1861-(Ald-OH)-(Ac—OH)-(Glu-AMPD)]	–	–	–	> 100000 nM	> 100000 nM	> 1e+06 nM	> 1e+06 nM	–	120 ± 12 µM	> 20000 nM	> 20000 nM	–
